US20120264684A1, “Glycosylated Form of Antigenic GLP-1 Analogue” (priority 2009, published 2012)
“Also recorded” adds a separate entry of the source. One block for each compound: values may come before it.

Legend:
albumin = albumin (Homo sapiens, UniProt P02768); details: background art; cited from earlier work
[1] = system: BKS.Cg-+Leprdb/+Leprdb/Jc1 mice; test: Blood glucose lowering action of oligosaccharide chain added exendin-4 using db/db mice; type: in vivo; details: for blood glucose lowering action in db/db mice: 9 mmol/10 mL PBS, 10 mL/kg i.p., blood glucose at 30, 60, 120, 240 minutes
Method: (§1) Blood glucose suppressing activity using db/db mice can be determined by measuring blood glucose after administration of a test compound to diabetic mice. Blood glucose after administration of the test compound is measured over time, and if for example, blood glucose 120 minutes after administration is lower than at the time of administration, blood glucose lowering action can be confirmed. For example, sustainability of blood glucose lowering action can also be determined by measuring blood glucose 300 minutes after administration.
A PBS solution of position 30 Cys-disialooligosaccharide chain added exendin-4 synthesized in Example 1 ([…]/10 mL) was intraperitoneally administered to BKS.Cg-+Leprdb/+Leprdb/Jc1 mice (10 weeks old, male) at an administration dosage of 10 mL/kg. Orbital blood was collected before administration of the compound, as well as 30 minutes, 60 minutes, 120 minutes, and 240 minutes later, and blood glucose was measured using Accu-Chek Aviva (Roche Diagnostics).
Blood glucose lowering action was compared with non-oligosaccharide chain added exendin-4 synthesized in Comparative Example 1.

C57BL/6JJcl mice [2] = test: Oral glucose tolerance test (OGTT) of oligosaccharide chain added exendin-4; type: in vivo; details: 0.9 nmol/10 ml PBS, 10 ml/kg i.p., 30 minutes before oral glucose 1 mg/g, fasted C57BL/6JJcl mice, GLP-1 at 9 nmol/10 ml
Method: (§2) Blood glucose suppressing activity by OGTT can be determined by measuring blood glucose elevation suppression when mice are force-fed sugar. For example, first, a test compound is administered to mice fasted overnight, and glucose solution is orally administered 30 minutes later. Blood glucose in mice will rise from the administration of glucose, reach maximum at about 30 minutes after administration, and then slowly decrease. The blood glucose suppressing action of the oligosaccharide, chain added antigenic GLP-1 analogue can be evaluated by measuring blood glucose 30 minutes after administration of glucose, and comparing it to blood glucose when non-oligosaccharide chain added antigenic GLP-1 analogue is administered. […] Orbital blood was collected before administration of glucose, as well as 30 minutes, 60 minutes, and 120 minutes after administration of glucose, and blood glucose was measured using Accu-Chek Aviva (Roche Diagnostics). Similarly, non-oligosaccharide chain added liraglutide was also administered to db/db mice, blood glucose was measured over time, and compared to the action of position 30 Cys-disialooligosaccharide chain added liraglutide.

balb/c mice = details: mouse, in vivo
From the text: The effect of glycosylation on the antigenicity of exendin was verified by sensitizing mice with non-oligosaccharide chain added exendin-4 or position 30 Cys-disialooligosaccharide chain added exendin-4, and comparing blood anti-exendin-4 antibody concentrations.
As priming immunization, position 30 Cys-disialooligosaccharide chain added exendin-4 synthesized in Example 1 and non-oligosaccharide chain added exendin-4 (American Peptide Company) were mixed well with Complete Freund's adjuvant (Difco Laboratories) to make emulsions, and intraperitoneally administered to balb/c mice (female, 7 weeks old). […]
Plasma was collected from mice seven days after the boost immunization. The anti-exendin-4 antibody concentration in plasma was measured by Enzyme-Linked immunosorbent assay (ELISA) using commercially available anti-exendin-4 antibody (Antibodyshop) as the standard.
Fifty μg of non-oligosaccharide chain added exendin-4 was added to a 96-well ELISA plate, and incubated at 37° C. for 2 hours. […] The color development reaction was terminated by adding 20% SDS, and absorption at 405 nm was measured. The concentration of anti-exendin-4 antibody was determined using anti-exendin-4 monoclonal antibody as the standard.

C57BL/6JJcl mice [3] = test: Oral glucose tolerance test (OGTT) of oligosaccharide chain added liraglutide; type: in vivo; details: 9 nmol/10 ml PBS, 10 ml/kg i.p., 30 minutes before oral glucose 1 mg/g, fasted C57BL/6JJcl mice
Method: as §2, with “Diagnostics).” for “Diagnostics). Similarly, non-oligosaccharide chain added liraglutide was also administered to db/db mice, blood glucose was measured over time, and compared to the action of position 30 Cys-disialooligosaccharide chain added liraglutide.”

[4] = system: BKS.Cg-+Leprdb/+Leprdb/Jc1 mice (db/db mice); test: Blood glucose lowering action of oligosaccharide chain added liraglutide using db/db mice; type: in vivo; details: for blood glucose lowering action in db/db mice: 9 nmol/10 mL PBS, 10 mL/kg i.p., blood glucose at 30 to 720 minutes
Method: as §1, with “administration. […] Orbital blood was collected before administration of the compound, as well as 30 minutes, 60 minutes, 120 minutes, 240 minutes, 480 minutes, and 720 minutes later, and blood glucose was measured using Accu-Chek Aviva (Roche Diagnostics). Similarly, non-oligosaccharide chain added liraglutide was also administered to db/db mice, blood glucose was measured over time, and compared to the action of position 30 Cys-disialooligosaccharide chain added liraglutide.” for “administration.”

[5] = stated with the db/db mice test
[6] = listed as Oligosaccharide chain added exendin-4
[7] = listed as Oligosaccharide chain added liraglutide
[8] = listed as Position 30 Cys-disialooligosaccharide chain added liraglutide

albumin, sequence (P02768 25-609): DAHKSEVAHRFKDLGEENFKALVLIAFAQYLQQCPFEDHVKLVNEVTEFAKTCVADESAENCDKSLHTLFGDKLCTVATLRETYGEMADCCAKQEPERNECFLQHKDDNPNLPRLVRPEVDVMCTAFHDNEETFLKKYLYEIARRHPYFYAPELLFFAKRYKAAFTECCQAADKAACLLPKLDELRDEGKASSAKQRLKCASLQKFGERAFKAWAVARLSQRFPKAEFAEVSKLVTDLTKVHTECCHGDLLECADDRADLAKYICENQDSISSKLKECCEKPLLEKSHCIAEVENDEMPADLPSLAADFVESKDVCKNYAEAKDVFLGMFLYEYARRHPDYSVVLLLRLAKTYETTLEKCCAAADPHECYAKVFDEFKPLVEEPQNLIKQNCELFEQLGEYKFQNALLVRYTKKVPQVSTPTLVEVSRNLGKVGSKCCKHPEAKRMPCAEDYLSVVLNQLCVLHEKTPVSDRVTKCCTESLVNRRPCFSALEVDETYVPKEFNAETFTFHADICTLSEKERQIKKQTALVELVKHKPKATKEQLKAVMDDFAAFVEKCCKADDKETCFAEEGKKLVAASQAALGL

Compound: CCCCCCCCCCCCCCCC(=O)N[C@@H](CCC(=O)NCCCC[C@H](NC(=O)[C@H](C)NC(=O)[C@H](C)NC(=O)[C@H](CCC(N)=O)NC(=O)CNC(=O)[C@H](CCC(=O)O)NC(=O)[C@H](CC(C)C)NC(=O)[C@H](Cc1ccc(O)cc1)NC(=O)[C@H](CO)NC(=O)[C@H](CO)NC(=O)[C@@H](NC(=O)[C@H](CC(=O)O)NC(=O)[C@H](CO)NC(=O)[C@@H](NC(=O)[C@H](Cc1ccccc1)NC(=O)[C@@H](NC(=O)CNC(=O)[C@H](CCC(=O)O)NC(=O)[C@H](C)NC(=O)[C@@H](N)Cc1cnc[nH]1)[C@@H](C)O)[C@@H](C)O)C(C)C)C(=O)N[C@@H](CCC(=O)O)C(=O)N[C@@H](Cc1ccccc1)C(=O)N[C@H](C(=O)N[C@@H](C)C(=O)N[C@@H](Cc1c[nH]c2ccccc12)C(=O)N[C@@H](CC(C)C)C(=O)N[C@H](C(=O)N[C@@H](CCCNC(=N)N)C(=O)NCC(=O)N[C@@H](CCCNC(=N)N)C(=O)NCC(=O)O)C(C)C)[C@@H](C)CC)C(=O)O [Liraglutide]
- administered amount that binds to albumin (albumin): about 99%

Compound: Exendin-4
- blood glucose lowering action in db/db mice [1]: strong blood glucose lowering action 30 minutes after administration
- duration of blood glucose lowering effect in db/db mice ([1]; i.p., 10 mL/kg, last sampling 240 minutes): 240 min
- blood stability [1, 5]: high blood stability
- blood glucose elevation suppressive action (OGTT) (C57BL/6JJcl mice [2]): blood glucose elevation suppressive action higher than vehicle (PBS only) and GLP-1

Compound: Position 30 Cys-DisialoOligosaccharide Chain Added Exendin-4
- blood glucose lowering action in db/db mice [1, 6]: string blood glucose lowering action equal to non-oligosaccharide chain added exendin-4
- blood glucose lowering action in db/db mice ([1]; listed as Position 30 Cys-disialooligosaccharide chain added exendin-4): blood glucose lowering action and sustainability equal to non-oligosaccharide chain added exendin-4
- blood glucose elevation suppressive action (OGTT) (C57BL/6JJcl mice [2]; [6]): blood glucose elevation suppressive action equal to non-oligosaccharide chain added exendin-4
- plasma anti-exendin-4 antibody concentration / antibody titer compared to non-oligosaccharide chain added exendin-4 (balb/c mice): about one-quarter

- blood stability [4, 5]: high blood stability
Compound: Position 30 Cys-DisialoOligosaccharide Chain Added Liraglutide
- blood glucose elevation suppressive action (OGTT) (C57BL/6JJcl mice [3]): even higher blood glucose elevation suppressive action compared to non-oligosaccharide chain added liraglutide
- blood glucose elevation suppressive action (OGTT) (C57BL/6JJcl mice [3]; [7]): blood glucose elevation suppressive action even higher than non-oligosaccharide chain added liraglutide
- blood glucose elevation suppressive action (OGTT) (C57BL/6JJcl mice [3]; [8]): blood glucose elevation suppressive action higher than vehicle (PBS only) and GLP-1
- blood glucose lowering action in db/db mice [4, 7]: blood glucose lowering action and sustainability equal to non-oligosaccharide chain added liraglutide
- blood glucose lowering action in db/db mice [4, 8]: strong blood glucose lowering action 30 minutes after administration; also recorded: blood glucose lowering action and sustainability equal to non-oligosaccharide, chain added liraglutide
- duration of blood glucose lowering effect in db/db mice ([4]; i.p., 10 mL/kg, last sampling 720 minutes): 12 h
